The source made the active and inactive calls. The rule behind the calls is not given here.
System: CCRIS mutagenicity, Ames/micronucleus/aberration tests
Assay: CCRIS mutagenicity studies

Measured: mutagenic call

CCCCCCCCCC(=O)OCCN1CCN(CCCN2c3ccccc3Sc3ccc(C(F)(F)F)cc32)CC1
inactive: Test System: AMES SALMONELLA TYPHIMURIUM, Strain/Indicator: TA98, Metabolic Activation: NONE inactive; negative | Test System: AMES SALMONELLA TYPHIMURIUM, Strain/Indicator: TA98, Metabolic Activation: RAT, LIVER, S-9, PHENOBARBITAL AND 5,6-BENZOFLAVONE inactive; negative | Test System: AMES SALMONELLA TYPHIMURIUM, Strain/Indicator: TA100, Metabolic Activation: NONE, Method: PREINCUBATION inactive; negative | Test System: AMES SALMONELLA TYPHIMURIUM, Strain/Indicator: TA100, Metabolic Activation: RAT, LIVER, S-9, PHENOBARBITAL AND 5,6-BENZOFLAVONE inactive; negative | Test System: AMES SALMONELLA TYPHIMURIUM, Strain/Indicator: TA1535, Metabolic Activation: NONE inactive; negative | Test System: AMES SALMONELLA TYPHIMURIUM, Strain/Indicator: TA1535, Metabolic Activation: RAT, LIVER, S-9, PHENOBARBITAL AND 5,6-BENZOFLAVONE inactive; negative | Test System: AMES SALMONELLA TYPHIMURIUM, Strain/Indicator: TA1537, Metabolic Activation: NONE inactive; negative | Test System: AMES SALMONELLA TYPHIMURIUM, Strain/Indicator: TA1537, Metabolic Activation: RAT, LIVER, S-9, PHENOBARBITAL AND 5,6-BENZOFLAVONE inactive; negative | Test System: E. COLI, Strain/Indicator: WP2 UVRA, Metabolic Activation: NONE inactive; negative | Test System: E. COLI, Strain/Indicator: WP2 UVRA, Metabolic Activation: RAT, LIVER, S-9, PHENOBARBITAL AND 5,6-BENZOFLAVONE inactive; negative

CCCC(c1cc(C(C)(C)C)c(O)cc1C)c1cc(C(C)(C)C)c(O)cc1C
inactive: Test System: AMES SALMONELLA TYPHIMURIUM, Strain/Indicator: TA98, Metabolic Activation: NONE, Method: STANDARD PLATE inactive; negative | Test System: AMES SALMONELLA TYPHIMURIUM, Strain/Indicator: TA98, Metabolic Activation: S-9, Method: STANDARD PLATE inactive; negative | Test System: AMES SALMONELLA TYPHIMURIUM, Strain/Indicator: TA100, Metabolic Activation: NONE, Method: STANDARD PLATE inactive; negative | Test System: AMES SALMONELLA TYPHIMURIUM, Strain/Indicator: TA100, Metabolic Activation: S-9, Method: STANDARD PLATE inactive; negative
